Source: patent publication US20200017495A1, “NOVEL HETEROCYCLIC COMPOUNDS AND THEIR USE IN PREVENTING OR TREATING BACTERIAL INFECTIONS” (priority 2017, published 2020)
Read-outs that look alike come from different tables or passages of the source.

What was measured:
Assay in all cases: MIC of compounds alone and combined with antibacterials, broth microdilution (CLSI)
Assay type in all cases: cell-based
[1] = system: Escherichia coli (ECO) isolates; conditions: Escherichia coli, read-out: MIC
Method in brief: (§1)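 First, log-phase suspensions are brought to 5.10^5 CFU/mL final in ca-MHB; plates then incubate 16-20 h at 35° C in air. Growth is judged visually, giving the compound MIC alone and the antibacterial MIC at each compound concentration.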

[2] = system: Providencia rettgeri (PRE) isolates; conditions: for MIC: genotype TEM-1, OXA-48
Method in brief: as §1

[3] = system: Citrobacter koseri (CKR) isolates
Method in brief: as §1

[4] = system: Enterobacter cloacae (ECL) isolates; conditions: Enterobacter cloacae, read-out: MIC
Method in brief: as §1

COCC1=C(C(=O)O)N2C(=O)[C@@H](NC(=O)/C(=N\OC)c3csc(N)n3)[C@H]2SC1 [POD, Cefpodoxime]
MIC ([1]; strain ECO 4133, genotype TEM-30, OXA-1): 2 µg/mL
MIC ([1]; strain ECO 5302, genotype TEM-1, OXA-1): 4 µg/mL
MIC ([1]; strain ECO 131119, genotype TEM-1, OXA-48): 1 µg/mL
MIC ([1]; strain ECO 190317, genotype TEM-1, SHV-12, CTX-M-15, OXA-1): > 512 µg/mL
MIC ([1]; strain ECO RGN238, genotype OXA-1): 2 µg/mL
MIC ([1]; strain ECO UFR15, genotype TEM-1, OXA-48): 2 µg/mL
MIC ([1]; strain ECO UFR86, genotype ompC-, ompF-): 4 µg/mL
MIC ([1]; strain ECO UFR211, genotype TEM-24): 32 µg/mL
MIC ([2]; Providencia rettgeri, strain PRE UFR236, read-out: MIC): 64 µg/mL
MIC ([3]; Citrobacter koseri, strain CKO ROU, genotype TEM-1, SHV-12, CTX-M-15, OXA-1, OXA-48, read-out: MIC): 4 µg/mL
MIC ([3]; Citrobacter koseri, strain CKO UFR150, genotype TEM-1, OXA-48, read-out: MIC): 16 µg/mL
MIC ([4]; strain ECL P99, genotype AmpC): > 512 µg/mL
MIC ([4]; strain ECL UFR12, genotype CTX-M-9, OXA-48): 128 µg/mL
MIC ([4]; strain ECL UFR194, genotype OXA-48): 16 µg/mL

CC(C)(O/N=C(\C(=O)N[C@@H]1C(=O)N2C(C(=O)[O-])=C(C[n+]3ccccc3)CS[C@H]12)c1csc(N)n1)C(=O)O [CAZ, Ceftazidime]
MIC ATB in combination ([2]; PRE UFR99, AF2 @ 8 μg/mL): >128 µg/mL
MIC ATB in combination ([2]; PRE UFR99, AF3 @ 8 μg/mL): >128 µg/mL
MIC ATB in combination ([2]; strain PRE UFR96, with AF2 @ 8 μg/mL): <0.25 µg/mL
MIC ATB in combination ([2]; strain PRE UFR96, with AF3 @ 8 μg/mL): <0.25 µg/mL
MIC ATB in combination ([2]; strain PRE UFR97, with AF2 @ 8 μg/mL): >128 µg/mL
MIC ATB in combination ([2]; strain PRE UFR97, with AF3 @ 8 μg/mL): >128 µg/mL
MIC ([2]; strain PRE UFR236): 32 µg/mL
MIC ATB in combination ([2]; strain PRE UFR236, with AF2 @ 8 μg/mL): 0.5 µg/mL
MIC ATB in combination ([2]; strain PRE UFR236, with AF3 @ 8 μg/mL): <=0.25 μg/mL
MIC ATB in combination ([3]; CKO ROU, AF2 @ 8 μg/mL): 1 µg/mL
MIC ATB in combination ([3]; CKO ROU, AF3 @ 8 μg/mL): 1 µg/mL
MIC ATB in combination ([3]; CKO UFR149, AF2 @ 8 μg/mL): <0.25 µg/mL
MIC ATB in combination ([3]; CKO UFR149, AF3 @ 8 μg/mL): <0.25 µg/mL
MIC ATB in combination ([3]; CKO UFR150, AF2 @ 8 μg/mL): 4 µg/mL
MIC ATB in combination ([3]; CKO UFR150, AF3 @ 8 μg/mL): 4 µg/mL
MIC ([3]; strain CKO ROU, genotype TEM-1, SHV-12, CTX-M-15, OXA-1, OXA-48): 1 µg/mL
MIC ([3]; strain CKO UFR149, genotype OXA-48): >128 µg/mL
MIC ([3]; strain CKO UFR150, genotype TEM-1, OXA-48): 4 µg/mL
